The results in this text go back to DBAASP.

Common to all, as to experiment: ≥ marks a high value that may be exact or a test limit, other limits are often not marked, values filed in µg/mL are converted to µM
Assay [1] concerns Cronobacter sakazakii DSM 4485.
The subject of assay [2] is Cronobacter sakazakii DPC 6440.
The subject of assay [3] is Klebsiella pneumoniae NCIMB 13218.
The subject of assay [4] is Cronobacter sakazakii ATCC BAA-894.
Assay [5] concerns Cronobacter muytjensii ATCC 51329.
In assay [6] the test system is Pseudomonas aeruginosa ATCC 27853.
Assay [7] has as its system Staphylococcus aureus NCTC 8325-4.
For assay [8], the system named is Staphylococcus aureus Newman.
Assay [9] concerns Pseudomonas fluorescens NCIMB 9046.
Assay [10] has as its system Staphylococcus aureus RN4220.
Assay [11] concerns Salmonella enterica subsp. enterica serovar Typhimurium LT2.
In assay [12] the test system is Staphylococcus aureus RF122.
The subject of assay [13] is Escherichia coli NCIMB 11843.
For assay [14], the system named is Staphylococcus aureus SA113.
Assay [15] concerns Staphylococcus xylosus.
In assay [16] the test system is Escherichia coli DH5alpha.
For assay [17], the system named is Klebsiella pneumoniae ATCC 27736.
Assay [18] deals with Pseudomonas aeruginosa ATCC BAA-427.
The test system of assay [19] is Bacillus subtilis ATCC 6633.
In assay [20] the test system is Serratia marcescens.
Assay [21] relates to Streptococcus pneumoniae.
For assay [22], the system named is Streptococcus mutans.
The test system of assay [23] is Bacillus subtilis.
The test system of assay [24] is Saccharomyces cerevisiae.
Assay [25] deals with Candida albicans.
Assay [26] relates to Cryptococcus neoformans.
The test system of assay [27] is Pseudomonas putida.
Assay [28] deals with Escherichia coli.
Assay [29] deals with Salmonella typhimurium.
The subject of assay [30] is Staphylococcus aureus.

A word on the MIC: it is the lowest concentration that inhibits growth of the organism.

≈ marks a conversion by molar mass, not a printed value.

Consider `CC(C)C[C@H](NC(=O)[C@H](CC(C)C)NC(=O)[C@H](CC(N)=O)NC(=O)[C@H](CC(N)=O)NC(=O)[C@H](CC(C)C)NC(=O)[C@@H](N)C(C)C)C(=O)N[C@@H](CCCN=C(N)N)C(=O)O` [VLNNLLR], for which the MIC in assay [1] was not below 2500 µM; in [2], not below 625 µM; in assay [3] it was not below 1250 µM; in assay [4] it was not below 1250 µM; in assay [5], not below 1250 µM; in assay [6], 64 µM (≈ 53.8 µg/mL). For the same compound, the MIC in assay [7] is not below 312 µM; in [8], not below 1250 µM; in [9] it was not below 2500 µM; in [10] it was not below 1250 µM; in assay [11], not below 1250 µM; in [12] it was not below 1250 µM. Further, the MIC in assay [13] was not below 2500 µM; in [14] it was not below 312 µM.
As for `CC[C@H](C)[C@H](NC(=O)[C@H](CC(C)C)NC(=O)[C@@H](NC(=O)[C@H](CC(C)C)NC(=O)[C@@H](NC(=O)[C@H](CCCCN)NC(=O)[C@@H](N)CCCN=C(N)N)[C@@H](C)CC)[C@@H](C)CC)C(=O)N[C@@H](CCCCN)C(=O)N[C@@H](CCCN=C(N)N)C(=O)N[C@@H](CCCCN)C(=O)O` [RKILILIKRK], the MIC in assay [15] worked out at 4 µM (≈ 5.12 µg/mL); in assay [16] it was 16 µM (≈ 20.5 µg/mL).
With `CC[C@H](C)[C@H](NC(=O)CNC(=O)[C@H](CCCN=C(N)N)NC(=O)[C@H](C)NC(=O)[C@H](Cc1ccccc1)NC(=O)[C@H](Cc1cnc[nH]1)NC(=O)[C@H](Cc1cnc[nH]1)NC(=O)[C@H](Cc1ccccc1)NC(=O)[C@@H](N)Cc1ccccc1)C(=O)N[C@H](C(=O)N[C@@H](Cc1cnc[nH]1)C(=O)N[C@H](C(=O)NCC(=O)N[C@@H](CCCCN)C(=O)N[C@H](C(=O)N[C@H](C(=O)N[C@@H](Cc1cnc[nH]1)C(=O)N[C@@H](CCCN=C(N)N)C(=O)N[C@@H](CC(C)C)C(=O)N[C@H](C(=O)N[C@H](C(=O)NCC(N)=O)[C@@H](C)O)C(C)C)[C@@H](C)CC)[C@@H](C)O)C(C)C)C(C)C` [FFHHFARGIVHVGKTIHRLVTG], the minimum inhibitory concentration (MIC) in [17] was 12 µM (≈ 30.3 µg/mL); in assay [18], 24 µM (≈ 60.7 µg/mL); in assay [19] it was 16 µM (≈ 40.5 µg/mL).
Turning to `CC[C@H](C)[C@H](N)C(=O)N[C@@H](CCCCN)C(=O)N[C@@H](Cc1cnc[nH]1)C(=O)N[C@@H](CCC(N)=O)C(=O)NCC(=O)N[C@@H](CCCN=C(N)N)C(=O)N1CCC[C@H]1C(=O)N[C@@H](CCC(N)=O)C(=O)N[C@@H](CCC(=O)O)C(=O)O` [IKHQGRPQE], the MIC in assay [1], in [2], in assay [3], in assay [4], in [5] and in [7] was not below 2500 µM throughout. For the same compound, the minimal inhibitory concentration (MIC) in assay [8], in [9], in assay [10], in assay [11], in assay [12] and in assay [13] was not below 2500 µM each time. Moreover, the MIC in assay [14] is not below 2500 µM.
Regarding `CC(C)C[C@H](NC(=O)CNC(=O)[C@H](C)NC(=O)[C@@H](N)CCCN=C(N)N)C(=O)N[C@@H](CCC(N)=O)C(=O)N[C@@H](Cc1ccccc1)C(=O)N[C@@H](CC(C)C)C(=O)N[C@H](C(=O)NCC(=O)N[C@@H](CCCN=C(N)N)C(=O)N[C@H](C(=O)N[C@@H](Cc1cnc[nH]1)C(=O)N[C@@H](CCCN=C(N)N)C(=O)N[C@@H](CC(C)C)C(=O)N[C@@H](CC(C)C)C(=O)N[C@@H](CCCN=C(N)N)C(=O)N[C@@H](CCCCN)C(=O)O)C(C)C)C(C)C` [RAGLQFLVGRVHRLLRK], the MIC in assay [20] came to 31.7 µM (≈ 64 µg/mL); in assay [21], 15.8 µM (≈ 32 µg/mL); in assay [22] it was 15.8 µM (≈ 32 µg/mL); in assay [23], 15.8 µM (≈ 32 µg/mL); in assay [24], 7.92 µM (≈ 16 µg/mL); in assay [25], 7.92 µM (≈ 16 µg/mL). The MIC in [26] was 7.92 µM (≈ 16 µg/mL); in assay [27], 7.92 µM (≈ 16 µg/mL); in assay [28] it was 15.8 µM (≈ 32 µg/mL); in [29] it was 7.92 µM (≈ 16 µg/mL); in [30], 15.8 µM (≈ 32 µg/mL).
Regarding `CC[C@H](C)[C@H](N)C(=O)N[C@@H](CCCCN)C(=O)N[C@@H](Cc1cnc[nH]1)C(=O)N[C@@H](CCC(N)=O)C(=O)NCC(=O)N[C@@H](CC(C)C)C(=O)N1CCC[C@H]1C(=O)N[C@@H](CCC(N)=O)C(=O)N[C@@H](C)C(=O)O` [IKHQGLPQA], the MIC in assay [1] is not below 2500 µM; in assay [2] it was not below 625 µM; in assay [3] it was not below 2500 µM; in [4], not below 1250 µM; in assay [5], not below 2500 µM; in assay [7], not below 2500 µM. The MIC in assay [8] is not below 2500 µM; in [9] it was not below 2500 µM; in assay [10], not below 625 µM; in [11] it was not below 2500 µM; in assay [12], not below 625 µM; in [13], not below 2500 µM. Also, the minimum inhibitory concentration (MIC) in assay [14] is not below 2500 µM.
In the case of `CC(C)C[C@H](NC(=O)[C@H](CC(C)C)NC(=O)[C@H](CCCN=C(N)N)NC(=O)[C@H](Cc1cnc[nH]1)NC(=O)[C@@H](NC(=O)[C@H](CCCN=C(N)N)NC(=O)[C@H](CCCN=C(N)N)NC(=O)[C@H](CC(C)C)NC(=O)[C@H](CC(C)C)NC(=O)[C@H](CCCN=C(N)N)NC(=O)[C@H](Cc1cnc[nH]1)NC(=O)[C@@H](NC(=O)[C@H](CCCN=C(N)N)NC(=O)[C@H](CCCN=C(N)N)NC(=O)[C@H](CC(C)C)NC(=O)[C@H](CC(C)C)NC(=O)[C@H](CCCN=C(N)N)NC(=O)[C@H](Cc1cnc[nH]1)NC(=O)[C@@H](NC(=O)[C@@H](N)CCCN=C(N)N)C(C)C)C(C)C)C(C)C)C(=O)N[C@@H](CCCN=C(N)N)C(=O)O` [RVHRLLRRVHRLLRRVHRLLR], the minimum inhibitory concentration (MIC) is 22.8 µM (≈ 64 µg/mL) in [20]; not below 45.5 µM in [21]; 11.4 µM (≈ 32 µg/mL) in assay [22]; 2.85 µM (≈ 8 µg/mL) in [23]; not below 91.1 µM in assay [24]; more than 91.1 µM in assay [25]. Further, the MIC in assay [26] is not below 45.5 µM; in assay [27], 22.8 µM (≈ 64 µg/mL); in assay [28] it was 45.5 µM (≈ 128 µg/mL); in assay [29], 1.42 µM (≈ 4 µg/mL); in [30], 22.8 µM (≈ 64 µg/mL).
For `NCCCC[C@H](NC(=O)[C@H](CCCN=C(N)N)NC(=O)[C@H](CCCCN)NC(=O)[C@H](CCCCN)NC(=O)[C@H](CCCN=C(N)N)NC(=O)[C@@H](N)CCCCN)C(=O)O` [KRKKRK], the MIC is 16 µM (≈ 13.5 µg/mL) in [15] and not below 64 µM in assay [16].
